Results as given in ChEMBL document CHEMBL1212738, “Phenotypic and genotypic characterization of Enterobacteriaceae with decreased susceptibility to carbapenems: results from large hospital-based surveillance studies in China” (2010).
Converted amounts (≈) assume the structure as drawn.

How the values were obtained:
[1] = tested on: Klebsiella pneumoniae; test: Antimicrobial activity against Klebsiella pneumoniae ZJ68T expressing CTX-M-15 by CLSI method; type: functional
[2] = tested on: Klebsiella pneumoniae; test: Antimicrobial activity against Klebsiella pneumoniae PU104T expressing TEM-1, CTX-M-15 by CLSI method; type: functional
[3] = tested on: Escherichia coli; test: Antimicrobial activity against Escherichia coli PU60T expressing CMY-2 by CLSI method; type: functional
[4] = tested on: Escherichia coli; test: Antimicrobial activity against carbapenem-resistant Escherichia coli PU101 deficient in TEM-1, CTX-M-14, CMY-2, ompC by CLSI method; type: functional
[5] = tested on: Escherichia coli; test: Antimicrobial activity against Escherichia coli PU101T expressing CMY-2 by CLSI method; type: functional
[6] = tested on: Escherichia coli; test: Antimicrobial activity against Escherichia coli PU102T expressing TEM-1, CTX-M-14, CMY-2 by CLSI method; type: functional
[7] = tested on: Enterobacter cloacae; test: Antimicrobial activity against carbapenem-resistant Enterobacter cloacae GX24 deficient in TEM-1, DHA-1, aac(6')-Ib, ompC by CLSI method; type: functional
[8] = tested on: Klebsiella aerogenes; test: Antimicrobial activity against Enterobacter aerogenes PU41T expressing CTX-M-14, DHA-1, qnrS1 by CLSI method; type: functional
[9] = tested on: Escherichia coli; test: Antimicrobial activity against carbapenem-resistant Escherichia coli HX74 deficient in TEM-1, CTX-M-14, CTX-M-3, aac(6')-Ibcr, ompC/F by CLSI method; type: functional
[10] = tested on: Klebsiella aerogenes; test: Antimicrobial activity against carbapenem-resistant Enterobacter aerogenes WH85 deficient in TEM-1, CTX-M-3, ompC/F by CLSI method; type: functional
[11] = tested on: Enterobacter cloacae; test: Antimicrobial activity against carbapenem-resistant Enterobacter cloacae NJ88 deficient in CTX-M-14, ompC/F by CLSI method; type: functional
[12] = tested on: Enterobacter cloacae; test: Antimicrobial activity against carbapenem-resistant Enterobacter cloacae NJ89 deficient in CTX-M-14, ompC/F by CLSI method; type: functional
[13] = tested on: Enterobacter cloacae; test: Antimicrobial activity against carbapenem-resistant Enterobacter cloacae NJ90 deficient in CTX-M-14, ompC/F by CLSI method; type: functional
[14] = tested on: Enterobacter cloacae; test: Antimicrobial activity against carbapenem-resistant Enterobacter cloacae NJ91 deficient in CTX-M-14, ompC/F by CLSI method; type: functional
[15] = tested on: Klebsiella pneumoniae; test: Antimicrobial activity against carbapenem-resistant Klebsiella pneumoniae GZ84 deficient in SHV-11, aac(6')-Ib-cr, ompK35 by CLSI method; type: functional
[16] = tested on: Citrobacter freundii; test: Antimicrobial activity against Citrobacter freundii RJ78 expressing CMY-2, qnrA1, aac(6')-Ib-cr, ompC by CLSI method; type: functional
[17] = tested on: Klebsiella pneumoniae; test: Antimicrobial activity against carbapenem-resistant Klebsiella pneumoniae ZJ18 deficient in KPC-2, SHV-28, DHA-1, ompK35 by CLSI method; type: functional
[18] = tested on: Klebsiella pneumoniae; test: Antimicrobial activity against Klebsiella pneumoniae ZJ18T expressing KPC-2, DHA-1 by CLSI method; type: functional
[19] = tested on: Klebsiella pneumoniae; test: Antimicrobial activity against Klebsiella pneumoniae ZJ70T expressing KPC-2 by CLSI method; type: functional
[20] = tested on: Klebsiella pneumoniae; test: Antimicrobial activity against Klebsiella pneumoniae ZJ71T expressing KPC-2 by CLSI method; type: functional
[21] = tested on: Klebsiella pneumoniae; test: Antimicrobial activity against Klebsiella pneumoniae ZJ99 expressing KPC-2, CTX-M-3, qnrS1, ompK35 DE by CLSI method; type: functional
[22] = tested on: Escherichia coli; test: Antimicrobial activity against Escherichia coli ZJ86T expressing KPC-2 by CLSI method; type: functional
[23] = tested on: Escherichia coli; test: Antimicrobial activity against Escherichia coli ZJ87 expressing KPC-2, TEM-1, ompC by CLSI method; type: functional
[24] = tested on: Escherichia coli; test: Antimicrobial activity against Escherichia coli ZJ87T expressing KPC-2 by CLSI method; type: functional
[25] = tested on: Klebsiella pneumoniae; test: Antimicrobial activity against Klebsiella pneumoniae FZ47T expressing IMP-8, TEM-1, CTX-M-14, qnrB2, aac(6')-Ib by CLSI method; type: functional
[26] = tested on: Klebsiella pneumoniae; test: Antimicrobial activity against carbapenem-resistant Klebsiella pneumoniae FZ49 deficient in IMP-8, TEM-1, SHV-11, CTX-M-14, qnrB2, aac(6')-Ib, ompK35/36 by CLSI method; type: functional
[27] = tested on: Klebsiella pneumoniae; test: Antimicrobial activity against Klebsiella pneumoniae GZ64 expressing IMP-4, ompK35/36 by CLSI method; type: functional
[28] = tested on: Klebsiella pneumoniae; test: Antimicrobial activity against Klebsiella pneumoniae WH77 expressing IMP-4, TEM-1, SHV-14, CTX-M-3, qnrS1 by CLSI method; type: functional
[29] = tested on: Enterobacter cloacae; test: Antimicrobial activity against carbapenem-resistant Enterobacter cloacae SZ92 deficient in IMP-4, TEM-1, CTX-M-14, DHA-1, qnrB10/B4-like, aac(6')-Ib, ompC by CLSI method; type: functional
[30] = tested on: Escherichia coli; test: Antimicrobial activity against Escherichia coli C600 by CLSI method; type: functional
[31] = tested on: Klebsiella pneumoniae; test: Antimicrobial activity against carbapenem-resistant Klebsiella pneumoniae CY1 deficient in SHV-11, DHA-1, ompK35/36 by CLSI method; type: functional
[32] = tested on: Klebsiella pneumoniae; test: Antimicrobial activity against Klebsiella pneumoniae CY1T expressing SHV-11, DHA-1 by CLSI method; type: functional
[33] = tested on: Klebsiella pneumoniae; test: Antimicrobial activity against carbapenem-resistant Klebsiella pneumoniae PU5 deficient in SHV-12, DHA-1, aac(6')-Ib-cr, ompK35/36 by CLSI method; type: functional
[34] = tested on: Klebsiella pneumoniae; test: Antimicrobial activity against carbapenem-resistant Klebsiella pneumoniae PU8 deficient in SHV-11, DHA-1, aac(6')-Ib-cr, ompK35/36 by CLSI method; type: functional
[35] = tested on: Klebsiella pneumoniae; test: Antimicrobial activity against carbapenem-resistant Klebsiella pneumoniae SZ61 deficient in TEM-1, SHV-1a, CMY-2, ompK35/36 by CLSI method; type: functional
[36] = tested on: Klebsiella pneumoniae; test: Antimicrobial activity against carbapenem-resistant Klebsiella pneumoniae CY75 deficient in SHV-11, DHA-1, ompK35/36 by CLSI method; type: functional
[37] = tested on: Klebsiella pneumoniae; test: Antimicrobial activity against carbapenem-resistant Klebsiella pneumoniae XJ81 deficient in TEM-1, SHV-12, DHA-1, aac(6')-Ib, ompK35/36 by CLSI method; type: functional
[38] = tested on: Escherichia coli; test: Antimicrobial activity against Escherichia coli C600 transconjugant GZ66T expressing SHV-11, DHA-1 by CLSI method
[39] = tested on: Escherichia coli; test: Antimicrobial activity against Escherichia coli C600 transconjugant XJ81T expressing TEM-1, SHV-12, aac(6')-Ib by CLSI method
[40] = tested on: Escherichia coli; test: Antimicrobial activity against carbapenem-resistant Escherichia coli ZJ86 expressing KPC-2, TEM-1 with ompC loss by CLSI method
[41] = tested on: Escherichia coli; test: Antimicrobial activity against Escherichia coli C600 transconjugant WH76T expressing IMP-4, TEM-1, CTX-M-3, qnrS1 by CLSI method
[42] = tested on: Escherichia coli; test: Antimicrobial activity against Escherichia coli C600 transconjugant WH77T expressing IMP-4, TEM-1, CTX-M-3, qnrS1 by CLSI method

NCC[C@H](O)C(=O)N[C@@H]1C[C@H](N)[C@@H](O[C@H]2O[C@H](CN)[C@@H](O)[C@H](O)[C@H]2O)[C@H](O)[C@H]1O[C@H]1O[C@H](CO)[C@@H](O)[C@H](N)[C@H]1O [AMIKACIN]
MIC [1]: > 256 µg/mL
MIC [2]: 2 µg/mL (≈ 3.42 µM)
MIC [3]: 1 µg/mL (≈ 1.71 µM)
MIC [4]: 4 µg/mL (≈ 6.83 µM)
MIC [5]: 1 µg/mL (≈ 1.71 µM)
MIC [6]: 1 µg/mL (≈ 1.71 µM)
MIC [7]: > 256 µg/mL
MIC [8]: > 256 µg/mL
MIC [9]: 8 µg/mL (≈ 13.7 µM)
MIC [10]: 1 µg/mL (≈ 1.71 µM)
MIC [11]: > 256 µg/mL
MIC [12]: > 256 µg/mL
MIC [13]: > 256 µg/mL
MIC [14]: > 256 µg/mL
MIC [15]: 16 µg/mL (≈ 27.3 µM)
MIC [16]: 8 µg/mL (≈ 13.7 µM)
MIC [17]: > 256 µg/mL
MIC [18]: > 256 µg/mL
MIC [19]: 1 µg/mL (≈ 1.71 µM)
MIC [20]: 1 µg/mL (≈ 1.71 µM)
MIC [21]: 0.5 µg/mL (≈ 0.854 µM)
MIC [22]: 32 µg/mL (≈ 54.6 µM)
MIC [23]: 1 µg/mL (≈ 1.71 µM)
MIC [24]: 1 µg/mL (≈ 1.71 µM)
MIC [25]: > 256 µg/mL
MIC [26]: > 256 µg/mL
MIC [27]: 1 µg/mL (≈ 1.71 µM)
MIC [28]: 1 µg/mL (≈ 1.71 µM)
MIC [29]: 1 µg/mL (≈ 1.71 µM)
MIC [30]: 1 µg/mL (≈ 1.71 µM)
MIC [31]: > 256 µg/mL
MIC [32]: > 256 µg/mL
MIC [33]: > 256 µg/mL
MIC [34]: 8 µg/mL (≈ 13.7 µM)
MIC [35]: > 256 µg/mL
MIC [36]: 2 µg/mL (≈ 3.42 µM)
MIC [37]: 16 µg/mL (≈ 27.3 µM)
MIC [38]: > 256 µg/mL
MIC [39]: 16 µg/mL (≈ 27.3 µM)
MIC [40]: 1 µg/mL (≈ 1.71 µM)
MIC [41]: 1 µg/mL (≈ 1.71 µM)
MIC [42]: 1 µg/mL (≈ 1.71 µM)

CO/N=C(\C(=O)N[C@@H]1C(=O)N2C(C(=O)O)=C(COC(C)=O)CS[C@H]12)c1csc(N)n1 [CEFOTAXIME]
MIC [1]: > 256 µg/mL
MIC [2]: 256 µg/mL (≈ 562 µM)
MIC [3]: 16 µg/mL (≈ 35.1 µM)
MIC [4]: > 256 µg/mL
MIC [5]: 128 µg/mL (≈ 281 µM)
MIC [6]: 256 µg/mL (≈ 562 µM)
MIC [7]: 256 µg/mL (≈ 562 µM)
MIC [8]: 128 µg/mL (≈ 281 µM)
MIC [9]: > 256 µg/mL
MIC [10]: > 256 µg/mL
MIC [11]: > 256 µg/mL
MIC [12]: > 256 µg/mL
MIC [13]: > 256 µg/mL
MIC [14]: > 256 µg/mL
MIC [15]: 256 µg/mL (≈ 562 µM)
MIC [16]: 256 µg/mL (≈ 562 µM)
MIC [17]: 128 µg/mL (≈ 281 µM)
MIC [18]: 8 µg/mL (≈ 17.6 µM)
MIC [19]: 64 µg/mL (≈ 141 µM)
MIC [20]: 16 µg/mL (≈ 35.1 µM)
MIC [21]: 128 µg/mL (≈ 281 µM)
MIC [22]: 32 µg/mL (≈ 70.3 µM)
MIC [23]: 64 µg/mL (≈ 141 µM)
MIC [24]: 32 µg/mL (≈ 70.3 µM)
MIC [25]: 128 µg/mL (≈ 281 µM)
MIC [26]: > 256 µg/mL
MIC [27]: 256 µg/mL (≈ 562 µM)
MIC [28]: 256 µg/mL (≈ 562 µM)
MIC [29]: > 256 µg/mL
MIC [30]: 0.13 µg/mL (≈ 0.285 µM)
MIC [31]: 128 µg/mL (≈ 281 µM)
MIC [32]: 4 µg/mL (≈ 8.78 µM)
MIC [33]: > 256 µg/mL
MIC [34]: 128 µg/mL (≈ 281 µM)
MIC [35]: 128 µg/mL (≈ 281 µM)
MIC [36]: > 256 µg/mL
MIC [37]: > 256 µg/mL
MIC [38]: 16 µg/mL (≈ 35.1 µM)
MIC [39]: 4 µg/mL (≈ 8.78 µM)
MIC [40]: 64 µg/mL (≈ 141 µM)
MIC [41]: 256 µg/mL (≈ 562 µM)
MIC [42]: 256 µg/mL (≈ 562 µM)
